Several values for one entry are separate records, joined by “and”; a condition that tells them apart may be missing. Equal values may be shown once. Toxic doses and inconclusive results are not listed. The calls were made as follows: active = survival T/C of 150% or more; inactive = T/C below 125% in these data.
Test system: CD2F1 mice, L1210 leukemia ip, survival T/C
Assay: NCI In Vivo Anticancer Drug Screen. Data for tumor model L1210 Leukemia (intraperitoneal) in CD2F1 (CDF1) mice
Details: higher = longer survival
How it was run: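 Implant tumor; dose compound or vehicle; measure endpoint in both groups; report treated divided by control.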

[1] = endpoint: mean survival time, dose: 12.5 mg/kg/injection, schedule: Q01DX009 (ip), vehicle: saline with Tween-80
[2] = endpoint: mean survival time, dose: 25.0 mg/kg/injection, schedule: Q01DX009 (ip), vehicle: saline with Tween-80
[3] = endpoint: mean survival time, dose: 50.0 mg/kg/injection, schedule: Q01DX009 (ip), vehicle: saline with Tween-80
[4] = endpoint: mean survival time, dose: 100.0 mg/kg/injection, schedule: Q04DX002 (ip), vehicle: saline with Tween-80
[5] = endpoint: mean survival time, dose: 200.0 mg/kg/injection, schedule: Q04DX002 (ip), vehicle: saline with Tween-80
[6] = endpoint: mean survival time, dose: 100.0 mg/kg/injection, schedule: Q01DX009 (ip), vehicle: saline with Tween-80
[7] = endpoint: mean survival time, dose: 200.0 mg/kg/injection, schedule: Q01DX009 (ip), vehicle: saline with Tween-80
[8] = endpoint: mean survival time, dose: 400.0 mg/kg/injection, schedule: Q01DX009 (ip), vehicle: saline with Tween-80
[9] = endpoint: mean survival time, dose: 100.0 mg/kg/injection, schedule: Q01DX009 (ip), vehicle: saline
[10] = endpoint: mean survival time, dose: 200.0 mg/kg/injection, schedule: Q04DX003 (ip), vehicle: saline with Tween-80

Measured: T/C

COc1ccc(C(=O)CCN2CCC(O)(c3ccccc3)CC2)cc1
inactive: [1] 93 % of control | [2] 97 % of control | [3] 89 % of control

O=[N+]([O-])c1cc(Cl)cc2c1NP(=S)(c1ccccc1)N2 (stereo not given)
inactive: endpoint: mean survival time, dose: 25.0 mg/kg/injection, schedule: Q04DX002 (ip), vehicle: saline with Tween-80 91 % of control | endpoint: mean survival time, dose: 50.0 mg/kg/injection, schedule: Q04DX002 (ip), vehicle: saline with Tween-80 102 % of control | [4] 91 % of control | [5] 98 % of control

C1OCN2CSCC12 (stereo not given)
inactive: [1] 93 % of control and 96 % of control | [2] 98 % of control and 100 % of control | [3] 98 % of control and 102 % of control | [6] 101 % of control and 103 % of control | [7] 104 % of control and 108 % of control | [8] 110 % of control

N=C1N(c2ccccc2)CCN1c1ccccc1
inactive: endpoint: mean survival time, dose: 6.25 mg/kg/injection, schedule: Q04DX003 (ip), vehicle: saline with Tween-80 94 % of control | endpoint: mean survival time, dose: 12.5 mg/kg/injection, schedule: Q04DX003 (ip), vehicle: saline with Tween-80 92 % of control

CCOP(=S)(OCC)N1c2ccccc2Sc2ccccc21
inactive: [3] 95 % of control | [6] 90 % of control

OCC1OC(c2nn(-c3ccccc3)[n+](-c3ccccc3)n2)C(O)C1O (stereo not given)
inactive: endpoint: mean survival time, dose: 12.5 mg/kg/injection, schedule: Q01DX005 (ip), vehicle: water 106 % of control | endpoint: mean survival time, dose: 25.0 mg/kg/injection, schedule: Q01DX005 (ip), vehicle: water 97 % of control | endpoint: mean survival time, dose: 50.0 mg/kg/injection, schedule: Q01DX005 (ip), vehicle: water 95 % of control | endpoint: mean survival time, dose: 100.0 mg/kg/injection, schedule: Q01DX005 (ip), vehicle: water 106 % of control | endpoint: mean survival time, dose: 200.0 mg/kg/injection, schedule: Q01DX005 (ip), vehicle: water 103 % of control

COC(=O)Nc1cccc(-c2nc3ccc(NC(=O)OC)cc3c(=O)n2-c2ccccc2)c1
inactive: endpoint: mean survival time, dose: 50.0 mg/kg/injection, schedule: Q01DX009 (ip), vehicle: Klucel (hydroxypropylcellulose) (HPC) 114 % of control | endpoint: mean survival time, dose: 100.0 mg/kg/injection, schedule: Q01DX009 (ip), vehicle: Klucel (hydroxypropylcellulose) (HPC) 91 % of control | endpoint: median survival time, dose: 50.0 mg/kg/injection, schedule: Q04DX003 (ip), vehicle: saline with Tween-80 101 % of control | endpoint: median survival time, dose: 100.0 mg/kg/injection, schedule: Q04DX003 (ip), vehicle: saline with Tween-80 103 % of control | endpoint: median survival time, dose: 200.0 mg/kg/injection, schedule: Q04DX003 (ip), vehicle: saline with Tween-80 100 % of control

N#CC(=C1CCN(Cc2ccccc2)CC1)c1ccccc1
inactive: endpoint: median survival time, dose: 50.0 mg/kg/injection, schedule: Q04DX002 (ip), vehicle: saline with Tween-80 100 % of control | endpoint: median survival time, dose: 100.0 mg/kg/injection, schedule: Q04DX002 (ip), vehicle: saline with Tween-80 100 % of control | endpoint: median survival time, dose: 200.0 mg/kg/injection, schedule: Q04DX002 (ip), vehicle: saline with Tween-80 111 % of control

CC1(C)CC(O)(Cc2ccccc2)C(=O)c2ccccc21 (stereo not given)
inactive: endpoint: mean survival time, dose: 25.0 mg/kg/injection, schedule: Q01DX009 (ip), vehicle: water 95 % of control | endpoint: mean survival time, dose: 50.0 mg/kg/injection, schedule: Q01DX009 (ip), vehicle: water 92 % of control | endpoint: mean survival time, dose: 100.0 mg/kg/injection, schedule: Q01DX009 (ip), vehicle: water 95 % of control | endpoint: mean survival time, dose: 200.0 mg/kg/injection, schedule: Q01DX009 (ip), vehicle: water 95 % of control | endpoint: mean survival time, dose: 400.0 mg/kg/injection, schedule: Q01DX009 (ip), vehicle: water 97 % of control

CN(C)c1ccc(/C=[N+](\[O-])c2ccccc2)cc1
inactive: [3] 92 % of control | [6] 103 % of control | [7] 100 % of control

Cc1ccc(S(=O)(=O)OC2CCCCC2c2ccc(C(F)(F)F)cc2)cc1 (stereo not given)
inactive: endpoint: mean survival time, dose: 75.0 mg/kg/injection, schedule: Q01DX001 (ip), vehicle: other 96 % of control | endpoint: mean survival time, dose: 150.0 mg/kg/injection, schedule: Q01DX001 (ip), vehicle: other 88 % of control | endpoint: mean survival time, dose: 300.0 mg/kg/injection, schedule: Q01DX001 (ip), vehicle: other 88 % of control

CN(N=O)C(=O)NCC1OC(OC2(CO)OC(CNC(=O)N(C)N=O)C(O)C2O)C(O)C(O)C1O (stereo not given)
inactive: endpoint: mean survival time, dose: 50.0 mg/kg/injection, schedule: Q01DX009 (ip), vehicle: saline 119 % of control | [9] 122 % of control | endpoint: mean survival time, dose: 133.0 mg/kg/injection, schedule: Q01DX009 (ip), vehicle: saline 107 % of control

O=C1c2ccccc2C(C2c3ccccc3C(=O)c3ccccc32)c2ccccc21
inactive: endpoint: mean survival time, dose: 100.0 mg/kg/injection, schedule: Q04DX003 (ip), vehicle: saline with Tween-80 110 % of control | [10] 96 % of control | endpoint: mean survival time, dose: 400.0 mg/kg/injection, schedule: Q04DX003 (ip), vehicle: saline with Tween-80 100 % of control

O=C(CC(O)(C(F)(F)F)C(F)(F)F)C(Cl)C(O)(C(F)(F)F)C(F)(F)F (stereo not given)
inactive: endpoint: mean survival time, dose: 100.0 mg/kg/injection, schedule: Q01DX001 (ip), vehicle: other 102 % of control

CC/C(C)=N\O
inactive: [9] 97 % of control | endpoint: mean survival time, dose: 200.0 mg/kg/injection, schedule: Q01DX009 (ip), vehicle: saline 111 % of control | endpoint: mean survival time, dose: 400.0 mg/kg/injection, schedule: Q01DX009 (ip), vehicle: saline 97 % of control

NCC1CCC(C(=O)O)CC1 (stereo not given)
inactive: endpoint: median survival time, dose: 12.5 mg/kg/injection, schedule: Q01DX009 (ip), vehicle: saline with Tween-80 101 % of control | endpoint: median survival time, dose: 25.0 mg/kg/injection, schedule: Q01DX009 (ip), vehicle: saline with Tween-80 101 % of control | endpoint: median survival time, dose: 50.0 mg/kg/injection, schedule: Q01DX005 (ip), vehicle: saline with Tween-80 110 % of control | endpoint: median survival time, dose: 50.0 mg/kg/injection, schedule: Q01DX009 (ip), vehicle: saline with Tween-80 100 % of control | endpoint: median survival time, dose: 100.0 mg/kg/injection, schedule: Q01DX005 (ip), vehicle: saline with Tween-80 104 % of control | endpoint: median survival time, dose: 100.0 mg/kg/injection, schedule: Q01DX009 (ip), vehicle: saline with Tween-80 101 % of control | endpoint: median survival time, dose: 200.0 mg/kg/injection, schedule: Q01DX005 (ip), vehicle: saline with Tween-80 97 % of control | endpoint: median survival time, dose: 200.0 mg/kg/injection, schedule: Q01DX009 (ip), vehicle: saline with Tween-80 100 % of control | endpoint: median survival time, dose: 400.0 mg/kg/injection, schedule: Q01DX005 (ip), vehicle: saline with Tween-80 105 % of control | endpoint: median survival time, dose: 400.0 mg/kg/injection, schedule: Q01DX009 (ip), vehicle: saline with Tween-80 100 % of control | endpoint: median survival time, dose: 800.0 mg/kg/injection, schedule: Q01DX005 (ip), vehicle: saline with Tween-80 97 % of control

CCCCCCCCCCCCCCCC(=O)Nc1c(C)cccc1C
inactive: [4] 100 % of control | [5] 91 % of control | endpoint: mean survival time, dose: 400.0 mg/kg/injection, schedule: Q04DX002 (ip), vehicle: saline with Tween-80 95 % of control

CCC(N)C(O)C(C)C (stereo not given)
inactive: endpoint: mean survival time, dose: 100.0 mg/kg/injection, schedule: Q01DX001 (ip), vehicle: saline 105 % of control | endpoint: mean survival time, dose: 200.0 mg/kg/injection, schedule: Q01DX001 (ip), vehicle: saline 90 % of control | endpoint: mean survival time, dose: 400.0 mg/kg/injection, schedule: Q01DX001 (ip), vehicle: saline 96 % of control

CC1C=CC(C(=O)Nc2ccc(Cl)c(Cl)c2)N1C (stereo not given)
inactive: [10] 92 % of control

O=C1OC2(c3ccc(O)cc3Oc3cc(O)ccc32)C2C1C1(Cl)C(Cl)=C(Cl)C2(Cl)C1(Cl)Cl (stereo not given)
inactive: [6] 101 % of control | [7] 97 % of control | [8] 95 % of control

O=C(O)C(=CCc1cccc2ccccc12)C(=O)O
inactive: endpoint: mean survival time, dose: 100.0 mg/kg/injection, schedule: Q04DX003 (ip), vehicle: Klucel (hydroxypropylcellulose) (HPC) 101 % of control | endpoint: mean survival time, dose: 200.0 mg/kg/injection, schedule: Q04DX003 (ip), vehicle: Klucel (hydroxypropylcellulose) (HPC) 100 % of control | endpoint: mean survival time, dose: 400.0 mg/kg/injection, schedule: Q04DX003 (ip), vehicle: Klucel (hydroxypropylcellulose) (HPC) 103 % of control

— PubChem BioAssay AID256 (DTP/NCI, 2004)
